{
  "source": "patent US20100125094A1",
  "about": "“PY[…] NICOTINIC ACETYLCHOLINE RECEPTORS” (AUSPEX PHARMACEUTICALS, INC., priority 2008, published 2010)",
  "origin": "cited, not measured here",
  "data": [
    {"molecule": "CN1CCCC1c1cccnc1", "note": "(centres unmarked) [Nicotine, 3-(1-methyl-pyrrolidin-2-yl)-pyridine]", "values": [
      {"measurement": "half life of nicotine in the body", "setting": "in the body", "result": "around two"},
      {"measurement": "time for nicotine to reach the brain", "setting": "when inhaled, on average", "result": "about seven"}
    ]}
  ]
}
